Laboratory results as given in patent publication US20230210834A1, “RNA METHYLTRANSFERASE INHIBITOR, SCREENING METHOD THEREFOR, ANTI-CANCER AGENT EFFICACY ASSESSMENT MARKER, AND KIT FOR EFFECTIVELY PREDICTING FTSJ1 INHIBITOR” (National University Corporation Okayama University, priority 2019, published 2023).
Like-named read-outs stand apart in the source and are kept apart here.

Experiments:
[1] = test system: polyglutamine luciferase reporter; test: Screening: polyglutamine luciferase reporter assay in NUGC3 cells (luminescence % of DMSO); assay type: cell-based, human
Description: (§1) Human gastric cancer cell line NUGC3 was cultured in a DMEM medium (high glucose with L-glutamine and phenol red, produced by FUJIFILM Wako Pure Chemical Corporation) containing 10% fetal bovine serum (produced by Thermo Fisher Scientific Inc.) and penicillin-streptomycin (produced by FUJIFILM Wako Pure Chemical Corporation) (this medium is simply referred to below as “DMEM+10% FBS+1×P/S”). Then, the NUGC3 cells were seeded in a 60-mm culture dish (produced by BioLite) so that the cells were 80% confluent after 24 hours. Subsequently, 5 μg of a reporter plasmid and 15 μL of a lipofection reagent (transIT-LT1, produced by Mirus Bio LLC) were mixed in 500 μL of Opti-MEM medium (produced by Thermo Fisher Scientific, Inc.) to form a complex, which was added to the medium in which the NUGC3 cells were cultured in the 60-mm culture dish. For use as the reporter plasmid, 5 μg of a polyglutamine luciferase reporter was introduced (in the polyglutamine luciferase reporter, a Renilla luciferase expressed in the IRES was located as an internal standard downstream of the sequence of a firefly luciferase sequence to which polyglutamine was added). Alternatively, a YAP/TAZ activity reporter was used by simultaneously introducing 3 μg of 8×GTIIC plasmid and 2 μg of a Renilla luciferase reporter as an internal standard. After another 24 hours, the cells were exfoliated with a 0.05 w/v % trypsin-0.53 mmol/l EDTA-4Na solution (produced by FUJIFILM Wako Pure Chemical Corporation), and then seeded in a 96-well plate (produced by BioLite) so that the cells were 80% confluent after 24 hours. Twenty-four hours after seeding in the 96-well plate, the medium in each well was replaced with 100 μL of a medium (DMEM+10% FBS+an antibiotic) containing 10 μM or 5 μM of a compound for evaluation. After another 24 hours, the medium containing the compound was removed, and the 96-well plate was transferred on ice. Each well was washed with 100 μL of phosphate buffer (PBS, produced by FUJIFILM Wako Pure Chemical Corporation). Thereafter, 20 μL of Passive Lysis Buffer (1×) contained in a Dual-Luciferase Reporter Assay System (produced by Promega Corporation) was added. The plate was then gently shaken for 15 minutes at room temperature to lyse the cells. After confirming that the cells were lysed, 10 μL of the lysate was transferred from each well to each corresponding well of a white 96-well plate (produced by Greiner Bio-one). To each well of the white 96-well plate was added 100 μL of a mixture of a Luciferase Assay Buffer II and Luciferase Assay Substrate contained in the Dual-Luciferase Reporter Assay System (produced by Promega Corporation), whereby the luminescence of the firefly luciferase was induced, and the luminescence intensity was detected with a microluminometer (produced by Berthold Japan K.K.). Subsequently, 100 μL of a mixture of Stop & Glo Buffer and Stop & Glo Substrate contained in the Dual-Luciferase Reporter Assay System (produced by Promega Corporation) was added, whereby the luminescence of firefly luciferase was quenched while the luminescence of Renilla luciferase was induced, and the luminescence intensity was detected with a microluminometer (produced by Berthold Japan K.K.) in a manner similar to the above. The ratio of the luminescence intensity of the firefly luciferase and the luminescence intensity of the Renilla luciferase was calculated, and the luminescence intensity (%) of the wells containing each compound was calculated with the luminescence intensity of the well containing DMSO (dimethyl sulfoxide, used as a solvent for the compound liquids) taken as 100%. […] Unless otherwise specified, the measured values in the table represent the results obtained by evaluation with the addition of 10 μM of each compound for evaluation.

YAP/TAZ = test: Screening: YAP/TAZ activity reporter (8xGTIIC plasmid) assay in NUGC3 cells (luminescence % of DMSO); assay type: cell-based, human
Description: as §1

[2] = NUGC3 cells, luminescence relative to DMSO, concentration not given
[3] = polyglutamine luciferase reporter, NUGC3 cells, luminescence relative to DMSO, concentration not given
[4] = YAP/TAZ activity reporter (8×GTIIC), NUGC3 cells, luminescence relative to DMSO, concentration not given

Structure (SMILES)	Polyglutamine [1, 2] [%]	8×GTIIC (YAP/TAZ; [2]) [%]	Polyglutamine [1, 3] [%]	8×GTIIC (YAP/TAZ; [4]) [%]	further results
CCc1cccc(C2CC(c3ccc(C)cc3)=NC2S(=O)(=O)c2ccc(C)cc2)c1CC (stereo not drawn) [PVZF0069]	46.34	49.99			
Cc1ccc(C2=NC(S(=O)(=O)c3ccc(C)cc3)C(c3ccccc3)C2)cc1 (stereo not drawn) [PVZF0072]	60.73	76.88			
Cc1ccc(C2=NC(S(=O)(=O)c3ccccc3)C(c3ccc(C)cc3)C2)cc1 (stereo not drawn) [PVZF0073]	60.62	86.43			
Cc1ccc(C2=NC(S(=O)(=O)c3ccccc3)C(c3ccccc3C)C2)cc1 (stereo not drawn) [PVZF0074]	79.16	96.63			
CCc1cccc(C2CC(c3ccc(C)cc3)=NC2S(C)(=O)=O)c1CC (stereo not drawn) [PVZF0079]	53.25	79.74			
CCc1ccc(C2=NC(S(=O)(=O)c3ccc(C)cc3)C(c3cccc(CC)c3CC)C2)cc1CC (stereo not drawn) [PVZF0081]	57.42	56.18			
Cc1ccc(C2=NC(S(C)(=O)=O)C(c3ccc(C)cc3)C2)cc1 (stereo not drawn) [PVZF0082]	87.78	172.9			
CCc1ccc(C2CC(c3ccc(C)cc3)=NC2S(C)(=O)=O)cc1 (stereo not drawn) [PVZF0083]	57.89	104.5			
Cc1ccc(C2=NC(S(C)(=O)=O)C(c3ccc(C(C)C)cc3)C2)cc1 (stereo not drawn) [PVZF0084]	71.08	146.9			
Cc1ccc(C2=NC(S(=O)(=O)c3ccccc3)C(c3ccc(C)cc3)C2)cc1 (stereo not drawn) [PVZF0086]	58.32	57.06			
Cc1ccc(C2=NC(S(C)(=O)=O)C(c3ccc(C)cc3)C2)cc1 (stereo not drawn) [PVZF0087]	81.35	187.1			
CCc1ccc(C2CC(c3ccc(C)cc3)=NC2S(=O)(=O)c2ccccc2)cc1 (stereo not drawn) [PVZF0089]	67.1	70.13			
CCc1ccccc1C1CC(c2ccc(C)cc2)=NC1S(=O)(=O)c1ccc(C)cc1 (stereo not drawn) [PVZF0091]	34.27	40.68			
CCc1ccc(C2CC(c3ccc(C)cc3)=NC2S(=O)(=O)c2ccc(C)cc2)cc1 (stereo not drawn) [PVZF0092]	48.91	54.44			
CC(=O)c1cccc(C2CC(c3ccc(C)cc3)=NC2S(=O)(=O)c2ccccc2)c1 (stereo not drawn) [PVZF0093]	45.45	59.77			
Cc1ccc(C2=NC(S(=O)(=O)c3ccc(C)cc3)C(c3ccccc3C)C2)cc1 (stereo not drawn) [PVZF0094]	69.05	97.79			
CC(=O)c1cccc(C2CC(c3ccc(C)cc3)=NC2S(=O)(=O)c2ccc(C)cc2)c1 (stereo not drawn) [PVZF0095]	47.01	66.76			
Cc1ccc(C2=NC(S(=O)(=O)c3ccccc3)C(c3ccc(C)cc3)C2)cc1 (stereo not drawn) [PVZF0096]	73.68	103.6			
Cc1ccccc1C1=CC(C2=CC3CCCCC3C=C2)=CC1 (stereo not drawn) [PVZF0101]					activity at 5 µM ([1]; Homo sapiens, NUGC-3, NUGC3 cells, luminescence relative to DMSO, 5 μM): 13%; activity at 10 µM ([1]; Homo sapiens, NUGC-3, NUGC3 cells, luminescence relative to DMSO, 10 μM): 10%; activity at 5 µM (YAP/TAZ; Homo sapiens, NUGC-3, NUGC3 cells, luminescence relative to DMSO, 5 μM, read-out: 8×GTIIC): 16.1%; activity at 10 µM (YAP/TAZ; Homo sapiens, NUGC-3, NUGC3 cells, luminescence relative to DMSO, 10 μM, read-out: 8×GTIIC): 12.5%
CC(C)c1cc(C(C)C)c(S(=O)(=O)CC2CCCC2)c(C(C)C)c1 [PVZF2002]			36.92	38.2	
CCCCCCS(=O)(=O)c1c(C(C)C)cc(C(C)C)cc1C(C)C [PVZF2003]			41.74	75.26	
CC(C)c1cc(C(C)C)c(S(=O)(=O)CCc2ccccc2)c(C(C)C)c1 [PVZF2006]			41.3	58.43	
CC(C)c1cc(C(C)C)c(S(=O)(=O)NCC2CCCNC2)c(C(C)C)c1 (stereo not drawn) [PVZF2008]			64.94	70.12	
O=S(=O)(CC1CCCC1)c1ccc2ccccc2c1 [PVZF2010]			33.13	24.49	
CCCCCCS(=O)(=O)c1ccc2ccccc2c1 [PVZF2011]			28.85	36.2	

Structure (SMILES)	Polyglutamine [1, 2] [%]	8×GTIIC (YAP/TAZ; [2]) [%]	Polyglutamine [1, 3] [%]	8×GTIIC (YAP/TAZ; [4]) [%]	further results
O=S(=O)(CC1CCCCC1)c1ccc2ccccc2c1 [PVZF2012]			33.76	34.08	
O=S(=O)(CCc1ccccc1)c1ccc2ccccc2c1 [PVZF2014]			40.32	59.08	
O=S(=O)(CCC1CCCCC1)c1ccc2ccccc2c1 [PVZF2015]			51.29	51.25	
O=S(=O)(CCCC1CCCCC1)c1ccc2ccccc2c1 [PVZF2017]			66.66	58.91	
CC1(C)CC(CS(=O)(=O)c2ccc3ccccc3c2)CC(C)(C)C1 [PVZF2018]			61.19	73.29	
CC(C)(C)c1ccc(S(=O)(=O)CC2CCCC2)cc1 [PVZF2019]			31.45	36.82	
CCCCCCS(=O)(=O)c1ccc(C(C)(C)C)cc1 [PVZF2020]			36.76	45.04	
CC(C)(C)c1ccc(S(=O)(=O)CC2CCCCC2)cc1 [PVZF2021]			32.95	44.55	
CC(C)(C)c1ccc(S(=O)(=O)CCc2ccccc2)cc1 [PVZF2023]			58.32	66.96	
CC(C)(C)c1ccc(S(=O)(=O)CCC2CCCCC2)cc1 [PVZF2024]			63.4	55.45	
CC(C)(C)c1ccc(S(=O)(=O)CCCC2CCCCC2)cc1 [PVZF2026]			31.89	34.4	
O=S(=O)(CC1CCCC1)c1ccc(-c2ccccc2)cc1 [PVZF2028]			42.32	40.24	
CCCCCCS(=O)(=O)c1ccc(-c2ccccc2)cc1 [PVZF2029]			49.5	49.28	
O=S(=O)(CC1CCCCC1)c1ccc(-c2ccccc2)cc1 [PVZF2030]			50.36	49.29	
O=S(=O)(CCc1ccccc1)c1ccc(-c2ccccc2)cc1 [PVZF2032]			73.08	76.99	
O=S(=O)(CCC1CCCCC1)c1ccc(-c2ccccc2)cc1 [PVZF2033]			67.7	69.36	
O=S(=O)(NCCC1=CCCCC1)c1ccc(-c2ccccc2)cc1 [PVZF2035, N-(2-(cyclohexy-1-en-1-yl)ethyl)-[1,1′-biphenyl]-4-sulfonamide]					Polyglutamine [1]: 58.85%; 8×GTIIC (YAP/TAZ): 71.12%
CC1(C)CC(CS(=O)(=O)c2ccc(-c3ccccc3)cc2)CC(C)(C)C1 [PVZF2036]			79.76	70.46	
CCC(C)(C)c1ccc(S(=O)(=O)CC2CCCC2)cc1 [PVZF2037]			51.06	43.28	
CCCCCCS(=O)(=O)c1ccc(C(C)(C)CC)cc1 [PVZF2038]			58.2	56.84	
CCC(C)(C)c1ccc(S(=O)(=O)CC2CCCCC2)cc1 [PVZF2039]			53.6	60	
CCC(C)(C)c1ccc(S(=O)(=O)CCc2ccccc2)cc1 [PVZF2041]			78.87	79.61	
CCC(C)(C)c1ccc(S(=O)(=O)CCC2CCCCC2)cc1 [PVZF2042]			34.02	35.98	
CCC(C)(C)c1ccc(S(=O)(=O)CCCC2=CCCCC2)cc1 [PVZF2044]			45.42	55.05	
CC1(C)CC(CS(=O)(=O)c2ccc(C(C)(C)C)cc2)CC(C)(C)S1 [PVZF2045]			65.16	66.26	
